# Results from patent US20070270455A1, “INHIBITION OF NF-kB” (priority 2005, published 2007).
# Residues, ends and D or L forms follow the SMILES beside them. *: point of attachment. Cbz = O=C(OCc1ccccc1)*
# Assays:
# HT1080ConALuC tumors = assay: p53-dependent luciferase reporter in xenograft tumors; type: in vivo; settings: intraperitoneal; 24 hours; nude mice
# Procedure: (§1) HT1080ConALuC cells were inoculated into two flanks of nude mice. When tumors reach 5 mm in diameter, mice were injected intraperitoneally with indicated concentrations of the drugs (mg/kg, 3 mice per group). After 24 hours mice were sacrificed, tumors were isolated, lysed in Reporter Lysis Reagent (Promega) and luciferase activity was measured in […] of tumor proteins. Bars represent fold of induction of luciferase activity in tumors, treated with drugs over luciferase activity in tumors treated with vehicle. FIG. 5B: HT1080sip53 or HT1080siGFP cells were inoculated in the left and right flank of nude mice respectively.
# (§2) NIH Swiss athymic nude, male mice, 5-6 weeks old were purchased from Harlan. 5×10^6 of tumor cells were inoculated into the flank of mice in 100 μL of PBS. […] As vehicle, 50% DMSO solution in PBS was used. Tumor size was measured in three dimensions every other day.
# The in vivo anti-tumor effects of aminoacridines were tested in a xenograft tumor model using HT1080 cells differing in their p53 status and carrying p53 luciferase reporters grown subcutaneously in nude mice.
# HT1080sip53 cells = assay: Xenograft tumor growth, p53-deficient tumors; type: in vivo, nude mice; settings: 50 mg/kg i.p. daily
# Procedure: as §1, §2
# [1] = test system: RCC specimens and fragments of normal kidney; assay: p53-responsive lacZ reporter in ex vivo organ cultures; type: cell-based; settings: 24 hours, X-gal
# Procedure: (§3) IC50% for each cell line and each drug was determined. Each point represents IC50% of particular cell line, which are grouped as follows: (i) black circles—RCC cell lines (ACHN, RCC9, RCC13, RCC29, RCC45, RCC54), (ii) red triangles—non-RCC cell lines (MCF7, HT1080, H1299, U20S, LNCaP, HCT116), (iii) green squares—normal kidney cells (NKE). […] 10^7 of ACHN cells were inoculated under the skin of nude mice. At the moment tumors achieved 5 mm in diameter QC administrations were started intraperitoneally, 50 mg/kg. 5FU (35 mg/kg) was used as a control. Tumor size was measured every other day and presented as a fold increase in tumor volume.
# Fresh RCC specimens and fragments of normal kidney from the same patients were placed in short-term organ cultures in the media containing lentiviral vector carrying p53-responsive lacZ reporter (FIG. 10B) for 24 hours.
# [2] = test system: PC3 p53-negative or DU145 cells comprising mutant p53; assay: Prostate cancer xenograft tumor growth; type: in vivo, mice; settings: 100 mg/kg by oral gavage; control sterile water
# From the text: Mice were also inoculated with 2×10^6 human prostate cancer cells using PC3 p53-negative or with DU145 cells comprising mutant p53. […] Tumor growth was reduced by ˜50% in quinacrine-treated mice.
# HT1080siGFP cells = assay: Xenograft tumor growth, p53-expressing tumors; type: in vivo, nude mice; settings: 50 mg/kg i.p. daily; 5FU 35 mg/kg for comparison
# Procedure: as §1, §2
# [3] = test system: RCC54 and RCC45, normal kidney epithelial cells; assay: Sensitization to TRAIL, methylene blue assay; type: cell-based; settings: RCC54, RCC45 vs normal kidney epithelial cells; combination with TRAIL
# ACHN cells = assay: ACHN tumor xenograft growth; type: in vivo, nude mice
# Procedure: as §3, §2
# RCC45ConALacZ cells = assay: p53-responsive reporter (ConALacZ) β-galactosidase assay in RCC45 cells; type: cell-based; settings: compared with doxorubicin
# Procedure: 2×10^4 of RCC45ConALacZ cells were plated into wells of 96 well plates in 200 μL of phenol-red free RPMI medium with standard additives. After overnight incubation library of chemical compounds in DMSO solution together with controls was added with the help of plastic bacterial replicators (200+/−100 nL). Final concentration of compounds was around 5 μg/ml. Negative control was DMSO, positive control was doxorubicin solution (0.2, 0.6 and 2 μM). After 24 hours lysis buffer with ONPG was added directly to the medium on ice. After 3 hours of incubation at 37° C., β-galactosidase activity was estimated by reading absorbance values Wallack 1420 plate reader (Perkin Elmer) at λ=430 nm.
# For cotransfection set-up, 2×10^5 cells were plated into 6 well plates and, after overnight incubation, transfected with Lipofectamin Plus reagent (Gibco BRL) with 0.5 μg of reporter plasmids (p21-ConALuc or pNF-κBLuc) in combination with different concentrations of p53, Arf, Ss-IκB, or siHDM2 expressing plasmids. […] Luciferase activity and β-galactosidase activity was measured in lysates prepared 48 hours after transfection with Cell Lysis Buffer (Promega) by luciferase assay system (Promega) or β-galactosidase enzyme system (Promega). Luminometric and colorimetric reactions were read on the Wallack 1420 plate reader (Perkin Elmer). […]
# RCC cell lines = assay: Restoration of p53-mediated transactivation in RCC cell lines; type: cell-based; settings: data not shown
# H1299-NF-kBLuc cells = assay: NF-κB-responsive luciferase reporter assay; type: cell-based; settings: basal and TNF-induced (10 ng/ml)
# [4] = test system: HT1080-sip53 and HT1080-siGFP cells; assay: Cell survival assay in isogenic cell pairs with anti-p53 or control siRNA; type: cell-based, human; settings: p53 plus vs minus cells; FIG. 4d
# p53 = assay: Western blot of p53 phosphorylation status in RCC45 cells; type: cell-based; settings: 9AA 5 μM or dox 1 μM, 16 hours
# Procedure: (§4) Western blot analysis of total protein lysates was performed using antibodies against p53 (DO1) and against specific sites of phosphorylation in p53. […] HCT116 cells were treated for 30 minutes with 1 μM PS-341. PS-341 was washed off after 30 minutes and cells were re-incubated in drug free medium prior to analysis at 3 hours or 16 hours post-treatment. […] Proteasome activity was determined by measuring the absorbance of free AMC generated by cleavage of an AMC-fluorogenic peptide. The proteasome activity of untreated cells was set at 100%. […] Cell lysates were isolated at the indicated hours after treatment and used for western blotting. […]
# (§5) Cells were lysed in RIPA buffer (25 mM Tris HCl, pH7.2, 125 mM NaCl, 1% NP40, 1% sodium deoxycholate, 1 mM EDTA) containing 1 mM PMSF (Sigma), 10 μg/ml of aprotinin (Sigma) and 10 μg/ml of leupeptin (Sigma). Protein concentrations were determined with BioRad Dc protein assay kit. […] The following antibodies were used: anti-p53—monoclonal mouse DO1 (Santa-Cruz), anti-p21—monoclonal mouse F-5 (Santa-Cruz), anti-mdm2—monoclonal mouse SMP14 (Santa-Cruz). p53 phosphorylation status was analyzed using phospho-p53 sampler kit from Cell signaling according to manufacturer's recommendations, anti-p65—(C20, Santa Cruz), anti-phospho-p65—(ser536, Cell Signaling), anti-IκBa—(C21, Santa Cruz), anti-p50—(NLS, Santa Cruz). […]
# IκB = assay: Western blot of IκB level and phosphorylation; type: cell-based; settings: PC-3 cells, 10 μM; MCF7 cells
# Procedure: as §4, §5
compound,measurement,setting,value
"CCN(CC)CCCC(C)Nc1c2ccc(Cl)cc2nc2ccc(OC)cc12 (stereo not shown) [quinacrine, Quinacrine]",activation of p53 in tumors,HT1080ConALuC tumors,capable of activating p53 in tumors
same,growth of p53-deficient tumors,HT1080sip53 cells,no effect
same,expression of p53-responsive reporter in tumor samples,[1],induced expression of the p53-responsive reporter
same,reduction of tumor growth,[2],~50%
same,growth of p53-expressing tumors,HT1080siGFP cells,inhibited growth of p53-expressing tumors to the same extend as 5FU
same,TRAIL resistance,[3],inverted TRAIL resistance of tumor but not normal kidney cells
same,weight loss (in words),ACHN cells; 50 mg/kg intraperitoneally,without significant weight loss
same,inhibition of tumor growth,"ACHN cells; ACHN s.c. in nude mice, 50 mg/kg intraperitoneally",about 50%
same,p53 reactivation / reporter induction (in words),RCC45ConALacZ cells,intermediate level of activity
same,RCC cell lines with restored p53-mediated transactivation,RCC cell lines,9 out of 10
same,NF-κB-responsive reporter activity,H1299-NF-kBLuc cells,inhibited basal and TNF-induced activity of the reporter
CC[C@@]1(O)C(=O)OCc2c1cc1n(c2=O)Cc2cc3ccccc3nc2-1 [camptothecin],toxicity found to be p53-dependent (none = not p53-dependent),[4],none
CC[C@]1(O)C[C@@H]2CN(CCc3c([nH]c4ccccc34)[C@@](C(=O)OC)(c3cc4c(cc3OC)N(C)[C@H]3[C@@](O)(C(=O)OC)[C@H](OC(C)=O)[C@]5(CC)C=CCN6CC[C@]43[C@@H]65)C2)C1 [vinblastine],toxicity found to be p53-dependent (none = not p53-dependent),[4],none
COc1cccc2c1C(=O)c1c(O)c3c(c(O)c1C2=O)C[C@@](O)(C(=O)CO)C[C@@H]3O[C@H]1C[C@H](N)[C@H](O)[C@H](C)O1 [doxorubicin],expression of p53-responsive reporter in tumor samples,[1],not
same,toxicity found to be p53-dependent (none = not p53-dependent),[4],none
same,p53 phosphorylation status,p53,did induce phosphorylation of p53
CC(C)C[C@@H](C=O)NC(=O)[C@H](CC(C)C)NC(=O)[C@H](CC(C)C)NC(=O)OCc1ccccc1 [MG132] (Cbz-Leu-Leu-Leu-aldehyde),level of IκB,IκB,caused accumulation of phosphorylated forms of IkB
CC(=O)O[C@H]1C(=O)[C@@]2(C)[C@H]([C@H](OC(=O)c3ccccc3)[C@]3(O)C[C@H](OC(=O)[C@H](O)[C@@H](NC(=O)c4ccccc4)c4ccccc4)C(C)=C1C3(C)C)[C@]1(OC(C)=O)CO[C@@H]1C[C@@H]2O [paclitaxel],toxicity found to be p53-dependent (none = not p53-dependent),[4],none
"O=c1[nH]cc(F)c(=O)[nH]1 [5FU, 5-fluorouracil]",weight loss,ACHN cells; 5FU 35 mg/kg,up to 20%
